According to ChEMBL document CHEMBL5038614, “Discovery of styrylaniline derivatives as novel alpha-synuclein aggregates ligands” (Eur J Med Chem, 2021):
Each block holds one molecule with its values, some of them ahead of it. Calls of active or inactive are those of the source. The calls are words filed in the database; no cut-off is given here.

Assays:
[1] = target: Alpha-synuclein (Homo sapiens, UniProt P37840); experiment: Binding affinity to recombinant human alpha-syn aggregates assessed as dissociation constant by SPR analysis
[2] = Plasma concentration in Sprague-Dawley rat at 5 mg/kg, iv measured upto 120 mins by LC-MS/MS analysis; assay type: ADME, organism-based
[3] = Permeability of compound in BBB assay; assay type: ADME
[4] = Ratio of drug concentration in Sprague-Dawley rat brain to plasma at 5 mg/kg, iv measured upto 120 mins by LC-MS/MS analysis; assay type: ADME, organism-based; conditions: read-out: BPR
[5] = Brain concentration in Sprague-Dawley rat at 5 mg/kg, iv measured upto 120 mins by LC-MS/MS analysis; assay type: ADME, organism-based; conditions: read-out: Ct
[6] = species on record: Mus musculus; experiment: Binding affinity to alpha-syn PFF in chronic C57BL/6 mouse brain straitum measured for 1 hrs by immunofluorescence confocal microscopic analysis; assay type: tissue-based; conditions: Striatum
[7] = species on record: Mus musculus; experiment: Binding affinity to alpha-syn PFF in acute C57BL/6 mouse brain striatum measured after 1 hrs by immunofluorescence confocal microscopic analysis; assay type: tissue-based
[8] = species on record: Mus musculus; experiment: Binding affinity to alpha-syn PFF in chronic C57BL/6 mouse M2 motor cortex measured for 1 hrs by immunofluorescence confocal microscopic analysis; assay type: tissue-based

Compound: CN(C)c1ccc(/C=C/c2ccccc2NC(=O)c2ccccn2)cc1
concentration at 2 h [2]: 6.06 µM
pBBB [3]: > 0.3
Kp at 2 h [4]: 2.62
concentration at 2 h [5]: 15.9 µM
Activity [6]: Active
Activity [7]: inactive

Compound: COc1ccc(/C=C/c2ccccc2NC(=O)c2cccnn2)cc1
Kd [1]: > 10 µM

Compound: COc1ccc(/C=C/c2ccccc2NC(=O)c2cccs2)cc1
Kd [1]: > 10 µM

Compound: COc1ccc(/C=C/c2ccccc2NC(=O)c2cccnc2)cc1
Kd [1]: > 10 µM

Compound: O=C(Nc1ccccc1/C=C/c1ccc([N+](=O)[O-])cc1)c1ccccn1
concentration at 2 h [2]: 38.5 µM
pBBB [3]: > 0.3
Activity [8]: Active
Kp at 2 h [4]: 1.21
concentration at 2 h [5]: 46.8 µM
Activity [6]: Active
Activity [7]: Active

Compound: O=C(Nc1ccc(/C=C/c2ccc(F)cc2)cc1)c1ccccc1
Kd [1]: > 10 µM

More lines, now with the values ahead:

Kd [1]: > 10 µM
Compound: COc1ccc(/C=C/c2ccc(NC(=O)c3ccccc3)cc2)cc1

Kd [1]: > 10 µM
Compound: O=C(Nc1ccccc1/C=C/c1ccc(F)cc1)c1cccnn1

Kd [1]: > 10 µM
Compound: COc1ccc(/C=C/c2ccccc2NC(=O)NCc2cnccn2)cc1

Kd [1]: > 10 µM
Compound: O=C(Nc1ccccc1/C=C/c1ccc([N+](=O)[O-])cc1)c1cccnn1
